Experimental data from patent US9938322B2, “β-hairpin peptidomimetics” (priority 2013, dated 2018).
*1 amine or outer side, *2 acyl side, *3 side chain or, on linkers, in order; H or OH if unused. Where a SMILES comes first, the peptide text is derived from it. Side-chain parts run from the residue outwards. [ ]: non-standard residue; d: D form. The star is where a group is joined. Phe(4-CF3) = N[C@@H](Cc1ccc(C(F)(F)F)cc1)C(=O)O; Tyr(3-F) = N[C@@H](Cc1ccc(O)c(F)c1)C(=O)O; X2 = O=C([C@H](CCNCc1ccccn1)N[*:1])[*:2]; Phe(4-F) = N[C@@H](Cc1ccc(F)cc1)C(=O)O; Pro(3S-OH) = O=C(O)[C@H]1NCC[C@@H]1O; cisHyp = O=C(O)[C@@H]1C[C@H](O)CN1; Cha = N[C@@H](CC1CCCCC1)C(=O)O; NH(3-picolyl) = c1cncc(CN*)c1; Chg = N[C@H](C(=O)O)C1CCCCC1; Tle = CC(C)(C)[C@H](N)C(=O)O; Pip = O=C(O)[C@@H]1CCCCN1; dDab = NCC[C@@H](N)C(=O)O; Orn = NCCC[C@H](N)C(=O)O; Dab = NCC[C@H](N)C(=O)O; Nva = CCC[C@H](N)C(=O)O; Dap = NC[C@H](N)C(=O)O; CO = O=C([*:1])[*:2]; Bn = c1ccc(C*)cc1; X3 = O=C(C(O)CO)*

System: human red blood cells (hRBC)
Assay: Hemolysis of human red blood cells
Assay type: cell-based
Settings: red cells of human, 1 h, 100
Procedure: Lyophilized peptides were weighed on a Microbalance (Mettler MT5) and dissolved in sterile water to a final concentration of 1 mg/ml. Stock solutions were kept at +4° C., light protected.
The peptides were tested for their hemolytic activity against human red blood cells (hRBC). Fresh hRBC were washed three times with phosphate buffered saline (PBS) and centrifuged for 10 min at 2000×g. Compounds (100 μg/ml) were incubated with 20% hRBC (v/v) for 1 h at 37° C. and shaking at 300 rpm. The final erythrocyte concentration was approximately 0.9×10^9 cells/ml. A value of 0% and 100% cell lyses, respectively, was determined by incubation of hRBC in the presence of PBS containing 0.001% acetic acid and 2.5% Triton X-100 in H2O, respectively. The samples were centrifuged, the supernatants were 8-fold diluted in PBS buffer and the optical densities (OD) were measured at 540 nm. The 100% lyses value (OD540H2O) gave an OD540 of approximately 0.5-1.0.
Percent hemolysis was calculated as follows: (OD540peptide/OD540H2O)×100%.

| Compound | Hemolysis at 100 μg/ml |
| --- | --- |
| CC(C)C[C@@H]1NC(=O)[C@@H]2CCCN2C(=O)[C@H]2CCCN2C(=O)[C@H](CO)NC(=O)[C@H](C)NC(=O)[C@H](C(C)(C)C)NC(=O)[C@H](CCN)NC(=O)[C@H](Cc2c[nH]c3ccccc23)NC(=O)[C@H](CCN)NC(=O)[C@@H](CCN)NC(=O)[C@H](CCCN)NC(=O)[C@H](CCN)NC(=O)[C@H](Cc2ccc(O)cc2)NC(=O)[C@H](CO)NC1=O [compound 36] (cyclo(LSY[Dab][Orn][dDab][Dab]W[Dab][Tle]AS[dP]P)) | 1% |
| C[C@@H]1NC(=O)[C@H](C(C)(C)C)NC(=O)[C@H](CCN)NC(=O)[C@H](Cc2c[nH]c3ccccc23)NC(=O)[C@H](CCN)NC(=O)[C@@H](CCN)NC(=O)[C@H](CCCN)NC(=O)[C@H](CCN)NC(=O)[C@H](CC2CCCCC2)NC(=O)[C@H](CCNCc2ccccn2)NC(=O)[C@H](Cc2c[nH]c3ccccc23)NC(=O)[C@@H]2CCCN2C(=O)[C@H]2CCCN2C(=O)[C@H](CO)NC1=O [compound 12] (cyclo(W[X2][Cha][Dab][Orn][dDab][Dab]W[Dab][Tle]AS[dP]P)) | 0% |
| CC(C)C[C@@H]1NC(=O)[C@@H]2CCCN2C(=O)[C@H]2CCCN2C(=O)[C@H](CO)NC(=O)[C@H](C)NC(=O)[C@H](C(C)(C)C)NC(=O)[C@H](CCN)NC(=O)[C@H](Cc2c[nH]c3ccccc23)NC(=O)[C@H](CCN)NC(=O)[C@H](CCN)NC(=O)[C@H](CCCN)NC(=O)[C@H](CCN)NC(=O)[C@H](Cc2ccc(O)cc2)NC(=O)[C@H](CO)NC1=O [compound 24] (cyclo(LSY[Dab][Orn][Dab][Dab]W[Dab][Tle]AS[dP]P)) | 1% |
| CCC[C@@H]1NC(=O)[C@@H]2CCCN2C(=O)[C@H]2CCCN2C(=O)[C@H](CO)NC(=O)[C@H](C)NC(=O)[C@H](C(C)(C)C)NC(=O)[C@H](CCN)NC(=O)[C@H](Cc2c[nH]c3ccccc23)NC(=O)[C@H](CCN)NC(=O)[C@@H](CCN)NC(=O)[C@H](CCCN)NC(=O)[C@H](CCN)NC(=O)[C@H](Cc2ccc(C(F)(F)F)cc2)NC(=O)[C@H](CO)NC1=O [compound 106] (cyclo([Nva]S[Phe(4-CF3)][Dab][Orn][dDab][Dab]W[Dab][Tle]AS[dP]P)) | 2% |
| C[C@@H]1NC(=O)[C@H](C(C)(C)C)NC(=O)[C@H](CCN)NC(=O)[C@H](Cc2c[nH]c3ccccc23)NC(=O)[C@H](CCN)NC(=O)[C@@H](CCN)NC(=O)[C@H](CCCN)NC(=O)[C@H](CCN)NC(=O)[C@H](CC2CCCCC2)NC(=O)[C@H](CNC(=O)C(O)CO)NC(=O)[C@H](Cc2c[nH]c3ccccc23)NC(=O)[C@@H]2CCCN2C(=O)[C@H]2CCCN2C(=O)[C@H](CO)NC1=O (some centres unmarked) [compound 13] (cyclo(W[Dap](X3)[Cha][Dab][Orn][dDab][Dab]W[Dab][Tle]AS[dP]P)) | 2% |
| CCC[C@@H]1NC(=O)[C@@H]2CCCN2C(=O)[C@H]2CCCN2C(=O)[C@H](CO)NC(=O)[C@H](C)NC(=O)[C@H](C2CCCCC2)NC(=O)[C@H](CCN)NC(=O)[C@H](Cc2c[nH]c3ccccc23)NC(=O)[C@H](CCN)NC(=O)[C@@H](CCN)NC(=O)[C@H](CCCN)NC(=O)[C@H](CCN)NC(=O)[C@H](C(C)(C)C)NC(=O)[C@H](CO)NC1=O [compound 138] (cyclo([Nva]S[Tle][Dab][Orn][dDab][Dab]W[Dab][Chg]AS[dP]P)) | 1% |
| C[C@@H]1NC(=O)[C@H](Cc2c[nH]c3ccccc23)NC(=O)[C@@H]2[C@@H](O)CCN2C(=O)[C@H]2CCCN2C(=O)[C@H](CO)NC(=O)[C@H](CO)NC(=O)[C@H](C(C)(C)C)NC(=O)[C@H](CCN)NC(=O)[C@H](Cc2c[nH]c3ccccc23)NC(=O)[C@H](CCN)NC(=O)[C@@H](CCN)NC(=O)[C@H](CCCN)NC(=O)[C@H](CCN)NC(=O)[C@H](C2CCCCC2)NC1=O [compound 65] (cyclo(WA[Chg][Dab][Orn][dDab][Dab]W[Dab][Tle]SS[dP][Pro(3S-OH)])) | 3.5% |
| CCC[C@@H]1NC(=O)[C@@H]2CCCN2C(=O)[C@H]2CCCN2C(=O)[C@H](CO)NC(=O)[C@H](C)NC(=O)[C@H](C2CCCCC2)NC(=O)[C@H](CCN)NC(=O)[C@H](Cc2c[nH]c3ccccc23)NC(=O)[C@H](CCN)NC(=O)[C@@H](CCN)NC(=O)[C@H](CCCN)NC(=O)[C@H](CCN)NC(=O)[C@H](CC2CCCCC2)NC(=O)[C@H](CO)NC1=O [compound 134] (cyclo([Nva]S[Cha][Dab][Orn][dDab][Dab]W[Dab][Chg]AS[dP]P)) | 8% |
| C[C@@H]1NC(=O)[C@H](C(C)(C)C)NC(=O)[C@H](CCN)NC(=O)[C@H](Cc2c[nH]c3ccccc23)NC(=O)[C@H](CCN)NC(=O)[C@@H](CCN)NC(=O)[C@H](CCCN)NC(=O)[C@H](CCN)NC(=O)[C@H](Cc2ccc(O)cc2)NC(=O)[C@H](CO)NC(=O)[C@H](Cc2ccc(O)cc2)NC(=O)[C@@H]2CCCN2C(=O)[C@H]2CCCN2C(=O)[C@H](CO)NC1=O [compound 21] (cyclo(YSY[Dab][Orn][dDab][Dab]W[Dab][Tle]AS[dP]P)) | 1% |
| CC(C)C[C@@H]1NC(=O)[C@@H]2CCCN2C(=O)[C@H]2CCCN2C(=O)[C@H](CO)NC(=O)[C@H](C)NC(=O)[C@H](C(C)(C)C)NC(=O)[C@H](CCN)NC(=O)[C@H](Cc2c[nH]c3ccccc23)NC(=O)[C@H](CCN)NC(=O)[C@@H](CCN)NC(=O)[C@H](CCCN)NC(=O)[C@H](CCN)NC(=O)[C@H](CC2CCCCC2)NC(=O)[C@H](CNC(=O)NCc2cccnc2)NC1=O [compound 39] (cyclo(L[Dap]([CO-NH(3-picolyl)])[Cha][Dab][Orn][dDab][Dab]W[Dab][Tle]AS[dP]P)) | 3% |
| C[C@@H]1NC(=O)[C@H](C(C)(C)C)NC(=O)[C@H](CCN)NC(=O)[C@H](Cc2c[nH]c3ccccc23)NC(=O)[C@H](CCN)NC(=O)[C@@H](CCN)NC(=O)[C@H](CCCN)NC(=O)[C@H](CCN)NC(=O)[C@H](Cc2ccc(O)cc2)NC(=O)[C@H](CO)NC(=O)[C@H](Cc2ccc(O)cc2)NC(=O)[C@@H]2CCCN2C(=O)[C@H]2CCCN2C(=O)[C@H](Cc2ccc(O)cc2)NC1=O [compound 153] (cyclo(YSY[Dab][Orn][dDab][Dab]W[Dab][Tle]AY[dP]P)) | 2% |
| C[C@@H]1NC(=O)[C@H](C(C)(C)C)NC(=O)[C@H](CCN)NC(=O)[C@H](Cc2c[nH]c3ccccc23)NC(=O)[C@H](CCN)NC(=O)[C@@H](CCN)NC(=O)[C@H](CCCN)NC(=O)[C@H](CCN)NC(=O)[C@H](CC2CCCCC2)NC(=O)[C@H](CN)NC(=O)[C@H](Cc2c[nH]c3ccccc23)NC(=O)[C@@H]2CCCCN2C(=O)[C@H]2CCCN2C(=O)[C@H](CO)NC1=O [compound 63] (cyclo(AS[dP][Pip]W[Dap][Cha][Dab][Orn][dDab][Dab]W[Dab][Tle])) | 3% |
| COC[C@@H]1NC(=O)[C@H](Cc2c[nH]c3ccccc23)NC(=O)[C@@H]2CCCN2C(=O)[C@H]2CCCN2C(=O)[C@H](CO)NC(=O)[C@H](C)NC(=O)[C@H](C(C)(C)C)NC(=O)[C@H](CCN)NC(=O)[C@H](Cc2c[nH]c3ccccc23)NC(=O)[C@H](CCN)NC(=O)[C@@H](CCN)NC(=O)[C@H](CCCN)NC(=O)[C@H](CCN)NC(=O)[C@H](CC2CCCCC2)NC1=O [compound 2] (cyclo(WS(Me)[Cha][Dab][Orn][dDab][Dab]W[Dab][Tle]AS[dP]P)) | 1.7% |
| C[C@@H]1NC(=O)[C@H](Cc2c[nH]c3ccccc23)NC(=O)[C@@H]2C[C@H](OCc3ccccc3)CN2C(=O)[C@H]2CCCN2C(=O)[C@H](CO)NC(=O)[C@H](C)NC(=O)[C@H](C(C)(C)C)NC(=O)[C@H](CCN)NC(=O)[C@H](Cc2c[nH]c3ccccc23)NC(=O)[C@H](CCN)NC(=O)[C@H](CCN)NC(=O)[C@H](CCCN)NC(=O)[C@H](CCN)NC(=O)[C@H](CC2CCCCC2)NC1=O [compound 64] (cyclo(WA[Cha][Dab][Orn][Dab][Dab]W[Dab][Tle]AS[dP][cisHyp](Bn))) | 3% |
| CC(C)C[C@@H]1NC(=O)[C@@H]2CCCN2C(=O)[C@H]2CCCN2C(=O)[C@H](CO)NC(=O)[C@H]([C@@H](C)O)NC(=O)[C@H](C(C)(C)C)NC(=O)[C@H](CCN)NC(=O)[C@H](Cc2c[nH]c3ccccc23)NC(=O)[C@H](CCN)NC(=O)[C@@H](CCN)NC(=O)[C@H](CCCN)NC(=O)[C@H](CCN)NC(=O)[C@H](Cc2ccc(O)cc2)NC(=O)[C@H](CCN)NC1=O [compound 148] (cyclo(L[Dab]Y[Dab][Orn][dDab][Dab]W[Dab][Tle]TS[dP]P)) | 1% |
| CCC[C@@H]1NC(=O)[C@@H]2CCCN2C(=O)[C@H]2CCCN2C(=O)[C@H](CO)NC(=O)[C@H](C)NC(=O)[C@H](C(C)(C)C)NC(=O)[C@H](CCN)NC(=O)[C@H](Cc2c[nH]c3ccccc23)NC(=O)[C@H](CCN)NC(=O)[C@@H](CCN)NC(=O)[C@H](CCCN)NC(=O)[C@H](CCN)NC(=O)[C@H](Cc2ccc(F)cc2)NC(=O)[C@H](CO)NC1=O [Ex. 104] (cyclo([Nva]S[Phe(4-F)][Dab][Orn][dDab][Dab]W[Dab][Tle]AS[dP]P)) | 0.5% |
| CCC[C@@H]1NC(=O)[C@@H]2CCCN2C(=O)[C@H]2CCCN2C(=O)[C@H](CO)NC(=O)[C@H](C)NC(=O)[C@H](C(C)(C)C)NC(=O)[C@H](CCN)NC(=O)[C@H](Cc2c[nH]c3ccccc23)NC(=O)[C@H](CCN)NC(=O)[C@@H](CCN)NC(=O)[C@H](CCCN)NC(=O)[C@H](CCN)NC(=O)[C@H](Cc2ccc(O)c(F)c2)NC(=O)[C@H](CO)NC1=O [compound 105] (cyclo([Nva]S[Tyr(3-F)][Dab][Orn][dDab][Dab]W[Dab][Tle]AS[dP]P)) | 1% |
